Some results are limits rather than exact numbers.

For this test, the target named is human somatostatin receptor subtype 5 (Homo sapiens, UniProt P35346). Put plainly: cAMP assay for SST5R (inhibition of cAMP via human SST5 receptor).
Chain of human somatostatin receptor subtype 5 (P35346 whole entry): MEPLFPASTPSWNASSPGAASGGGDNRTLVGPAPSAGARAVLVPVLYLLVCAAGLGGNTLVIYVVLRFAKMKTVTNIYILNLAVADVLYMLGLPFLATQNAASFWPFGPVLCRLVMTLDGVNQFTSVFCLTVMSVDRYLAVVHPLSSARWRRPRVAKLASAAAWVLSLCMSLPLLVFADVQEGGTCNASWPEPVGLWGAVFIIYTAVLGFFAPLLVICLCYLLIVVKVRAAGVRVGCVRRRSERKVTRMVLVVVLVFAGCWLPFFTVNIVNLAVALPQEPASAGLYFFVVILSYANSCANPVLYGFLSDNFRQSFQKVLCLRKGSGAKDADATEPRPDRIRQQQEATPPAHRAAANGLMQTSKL
Take `Cc1cc(F)cc(-c2cncc(-c3nc4c(F)cc(F)cc4[nH]3)c2N2CC(C)(CN)C2)c1` [Compound 1-50, 1-{1-[3-(4,6-difluoro-1H-1,3-benzodiazol-2-yl)-5-(3-fluoro-5-methylphenyl)pyridin-4-yl]-3-methylazetidin-3-yl}methanamine]: the half-maximal effective concentration (EC50) is below 10 nM.
The same measure for `CS(=O)(=O)c1cccc(-c2cncc(-c3nc4cccc(F)c4[nH]3)c2N2CC[C@H](N)C2)c1` [Compound 2-58, (3S)-1-[3-(4-fluoro-1H-1,3-benzodiazol-2-yl)-5-(3-methanesulfonylphenyl)pyridin-4-yl]pyrrolidin-3-amine]: 10 to 100 nM; for `CC1(N)CCN(c2c(-c3cccc(N4CCOC4=O)c3)cncc2-c2nc3cccc(F)c3[nH]2)C1` (stereo not shown) [Compound 2-17, 3-{3-[4-(3-amino-3-methylpyrrolidin-1-yl)-5-(4-fluoro-1H-1,3-benzodiazol-2-yl)pyridin-3-yl]phenyl}-1,3-oxazolidin-2-one]: 10 to 100 nM; for `Cc1cccc2nc(-c3cncc(-c4cccc(C(N)=O)c4)c3N3CC[C@H](N)C3)[nH]c12` [Compound 2-97, 3-{4-[(3S)-3-aminopyrrolidin-1-yl]-5-(4-methyl-1H-1,3-benzodiazol-2-yl)pyridin-3-yl}benzamide]: below 10 nM.
The same measure for `N#Cc1cccc(-c2cncc(-c3nc4cccc(F)c4[nH]3)c2N2C[C@@H](N)[C@@H](O)C2)c1` (racemic) [Compound 2-68, 3-{4-[cis-3-amino-4-hydroxypyrrolidin-1-yl]-5-(4-fluoro-1H-1,3-benzodiazol-2-yl)pyridin-3-yl}benzonitrile]: 10 to 100 nM.
The same measure for `Cc1cc(C)cc(-c2cncc(-c3nc4cc(F)cc(F)c4[nH]3)c2N2CC(CN)C2)c1` [Compound 1-19, 1-{1-[3-(4,6-difluoro-1H-1,3-benzodiazol-2-yl)-5-(3,5-dimethylphenyl)pyridin-4-yl]azetidin-3-yl}methanamine]: 10 to 100 nM; for `N#Cc1cccc(-c2cncc(-c3nc4c(C(N)=O)cccc4[nH]3)c2N2CC[C@H](N)C2)c1` [Compound 2-83, 2-{4-[(3S)-3-aminopyrrolidin-1-yl]-5-(3-cyanophenyl)pyridin-3-yl}-1H-1,3-benzodiazole-4-carboxamide]: 100 to 1000 nM; for `Cc1cc(C)c2[nH]c(-c3cncc(-c4ccc(F)c(C#N)c4)c3N3CC[C@](C)(N)C3)nc2n1` [Compound 2-174, 5-{4-[(3S)-3-amino-3-methylpyrrolidin-1-yl]-5-{5,7-dimethyl-1H-imidazo[4,5-b]pyridin-2-yl}pyridin-3-yl}-2-fluorobenzonitrile]: below 10 nM.
In turn, `Cc1ccnc2nc(-c3cncc(-c4ccc(F)c(C#N)c4)c3N3CC[C@H](N)C3)[nH]c12` [Compound 2-50, 5-{4-[(3S)-3-aminopyrrolidin-1-yl]-5-{7-methyl-1H-imidazo[4,5-b]pyridin-2-yl}pyridin-3-yl}-2-fluorobenzonitrile] returned an EC50 of 10 to 100 nM.
The same measure for `Cn1c(-c2cncc(-c3cccc(C#N)c3)c2N2CC[C@](C)(N)C2)nc2c(F)cccc21` [Compound 2-153, 3-{4-[(3S)-3-amino-3-methylpyrrolidin-1-yl]-5-(4-fluoro-1-methyl-1H-1,3-benzodiazol-2-yl)pyridin-3-yl}benzonitrile]: below 10 nM; for `Cc1cc(F)cc(-c2cncc(-c3nc4cc(C#N)cc(F)c4[nH]3)c2N2CC(CN)C2)c1` [Compound 1-16, 2-{4-[3-(aminomethyl)azetidin-1-yl]-5-(3-fluoro-5-methylphenyl)pyridin-3-yl}-4-fluoro-1H-1,3-benzodiazole-6-carbonitrile]: 100 to 1000 nM; for `Cc1cccc2nc(-c3cncc(-c4cccc(C(N)=O)c4F)c3N3CCC(C)(N)C3)[nH]c12` (stereo not shown) [Compound 2-138, 3-[4-(3-amino-3-methylpyrrolidin-1-yl)-5-(4-methyl-1H-1,3-benzodiazol-2-yl)pyridin-3-yl]-2-fluorobenzamide]: below 10 nM.
As for `NC(=O)c1cc(-c2cncc(-c3nc4cccc(F)c4[nH]3)c2N2CC[C@H](N)C2)ccc1F` [Compound 2-71, 5-{4-[(3S)-3-aminopyrrolidin-1-yl]-5-(4-fluoro-1H-1,3-benzodiazol-2-yl)pyridin-3-yl}-2-fluorobenzamide], the EC50 fell in the range of 10 to 100 nM.
The same measure for `CC(N)C1CN(c2c(-c3nc4cc(F)cc(F)c4[nH]3)cncc2-c2cccc(F)c2O)C1` (stereo not shown) [Compound 1-75, 2-{4-[3-(1-aminoethyl)azetidin-1-yl]-5-(4,6-difluoro-1H-1,3-benzodiazol-2-yl)pyridin-3-yl}-6-fluorophenol]: 10 to 100 nM; for `COc1cc(F)cc2nc(-c3cncc(-c4cc(C)cc(F)c4)c3N3CC(CN)C3)[nH]c12` [Compound 1-15, 1-{1-[3-(6-fluoro-4-methoxy-1H-1,3-benzodiazol-2-yl)-5-(3-fluoro-5-methylphenyl)pyridin-4-yl]azetidin-3-yl}methanamine]: 10 to 100 nM; for `CN(C)C(=O)c1cccc(-c2cncc(-c3nc4cccc(F)c4[nH]3)c2N2CCC(C)(N)C2)c1` (stereo not shown) [Compound 2-31, 3-[4-(3-amino-3-methylpyrrolidin-1-yl)-5-(4-fluoro-1H-1,3-benzodiazol-2-yl)pyridin-3-yl]-N,N-dimethylbenzamide]: 100 to 1000 nM.
Regarding `Cc1cccc2c1nc(-c1cncc(-c3ccnc(C#N)c3)c1N1CC[C@](C)(N)C1)n2C` [Compound 2-152, 4-[(3S)-3-amino-3-methylpyrrolidin-1-yl]-5-(1,4-dimethyl-1H-1,3-benzodiazol-2-yl)-[3,4′-bipyridine]-2′-carbonitrile], the EC50 is below 10 nM.
The compound `N#Cc1cc(F)cc(-c2cncc(-c3nc4ccc(F)c(F)c4[nH]3)c2N2CC[C@H](N)C2)c1` [Compound 2-99, 3-{4-[(3S)-3-aminopyrrolidin-1-yl]-5-(4,5-difluoro-1H-1,3-benzodiazol-2-yl)pyridin-3-yl}-5-fluorobenzonitrile] came in with an EC50 below 10 nM.
Consider `COc1ccc2nc(-c3cncc(-c4cc(F)cc(Cl)c4)c3N3CC[C@H](N)C3)[nH]c2c1` [Compound 2-104, (3S)-1-[3-(3-chloro-5-fluorophenyl)-5-(5-methoxy-1H-1,3-benzodiazol-2-yl)pyridin-4-yl]pyrrolidin-3-amine], for which the concentration giving a half-maximal response (EC50) is 10 to 100 nM.
To `N#Cc1cc(F)cc(-c2cncc(-c3nc4cccc(F)c4[nH]3)c2N2C[C@@H](N)C[C@H]2CO)c1` [Compound 2-88, 3-{4-[(2S,4S)-4-amino-2-(hydroxymethyl)pyrrolidin-1-yl]-5-(4-fluoro-1H-1,3-benzodiazol-2-yl)pyridin-3-yl}-5-fluorobenzonitrile] belongs above 1000 nM; to `Cc1cc(F)cc(-c2cncc(-c3nc4cccc(F)c4n3C)c2N2CC(CN)C2)c1` [Compound 1-25, 1-{1-[3-(7-Fluoro-1-methyl-1H-1,3-benzodiazol-2-yl)-5-(3-fluoro-5-methylphenyl)pyridin-4-yl]azetidin-3-yl}methanamine], 10 to 100 nM; to `Cc1cccc2[nH]c(-c3cncc(-c4cc(F)cc(C#N)c4)c3N3CC[C@H](N)C3)cc12` [Compound 2-129, 3-{4-[(3S)-3-aminopyrrolidin-1-yl]-5-(4-methyl-1H-indol-2-yl)pyridin-3-yl}-5-fluorobenzonitrile], 10 to 100 nM.

As a reminder, the EC50 is the concentration giving half of the maximal effect. A low value points to a more potent agent.

(Values after patent publication US11608335B2, “Somatostatin modulators and uses thereof” (CRINETICS PHARMACEUTICALS, INC., priority 2018, dated 2023).)
